Results taken from patent US9114067B2, “Local administration of gallium compositions to treat pain” (priority 2006, dated 2015).
Where two headings read alike, the source gives them in different places.

Assays:
[1] = system: painful diabetic neuropathy; conditions: Wiffen et al. 2005; cited from earlier work
postherpetic neuralgia [2] = conditions: cited from earlier work
postherpetic neuralgia [3] = test: Case report: gallium maltolate cream to treat postherpetic neuralgia (person); type: in vivo, human; conditions: tried over about three years before gallium treatment
Procedure: A person had been experiencing postherpetic neuralgia with erythema on the left side of their face for approximately three years. The pain was so severe that it interfered with sleep and other daily activities. During that period they had tried numerous systemic analgesics to relieve the pain, including amitriptyline 25 mg BID, methadone 5 mg BID, carbamazepine 100 mg BID, gabapentin 200 mg QD, oxycodone 20 mg BID, naproxen, acetaminophen, and intravenous hydrogen peroxide. […] They then began treatment using the topical gallium maltolate formulation of Example 1, above. This formulation was applied three times per day to the affected area, at about 8 AM, 1 PM, and 9 PM, every day for four weeks. The formulation was administered by dipping a fingertip lightly into the formulation, and then smearing the formulation from the fingertip onto the affected area.

[4] = system: non-malignant neuropathic pain; conditions: cited from earlier work
vaginal inflammation = test: Case report: gallium maltolate cream to treat pain and itching associated with vaginal inflammation (person); type: in vivo, human; conditions: for effect of earlier topical treatment on vaginal inflammation symptoms: same patient before gallium treatment
[5] = system: peripheral neuropathic pain; conditions: cited from earlier work
[6] = meta-analysis, Eisenberg et al. 2005

## NCC1(CC(=O)O)CCCCC1 [gabapentin]
[1]
  NNT for moderate pain relief: 3.8
Postherpetic neuralgia [2]; postherpetic neuralgia, Wiffen et al. 2005
  NNT for moderate pain relief: 3.2
Postherpetic neuralgia [3]
  pain relief from earlier treatments tried by the same patient: None of these treatments produced significant pain relief

## O=C1NC(=O)C(c2ccccc2)(c2ccccc2)N1 [phenytoin]
[1]
  NNT for moderate pain relief: 2.1

## CN1CC[C@]23c4c5ccc(O)c4O[C@H]2[C@@H](O)C=C[C@H]3[C@H]1C5 [morphine]
[4]; in vivo
  efficacy in intermediate-term (8-56 day) studies: marginal efficacy
  efficacy in short-term (24 hour) studies: marginal to no efficacy

## NC(=O)N1c2ccccc2C=Cc2ccccc21 [carbamazepine]
[1]
  NNT for moderate pain relief: 2.3
Postherpetic neuralgia [3]
  pain relief from earlier treatments tried by the same patient: None of these treatments produced significant pain relief

## CCC(=O)C(CC(C)N(C)C)(c1ccccc1)c1ccccc1 (stereo not shown) [methadone]
[4]; [6]
  efficacy in intermediate-term (8-56 day) studies: marginal efficacy
  efficacy in short-term (24 hour) studies: marginal to no efficacy
Postherpetic neuralgia [3]
  pain relief from earlier treatments tried by the same patient: None of these treatments produced significant pain relief

## CCOC(=O)c1ccc(N)cc1 [benzocaine]
Vaginal inflammation
  effect of earlier topical treatment on vaginal inflammation symptoms: little effect

## CC(=O)Nc1ccc(O)cc1 [acetaminophen]
Postherpetic neuralgia [3]
  pain relief from earlier treatments tried by the same patient: None of these treatments produced significant pain relief

## COc1ccc2cc([C@H](C)C(=O)O)ccc2c1 [naproxen]
Postherpetic neuralgia [3]
  pain relief from earlier treatments tried by the same patient: None of these treatments produced significant pain relief

## CN1CC[C@]23CCCC[C@H]2[C@H]1Cc1ccc(O)cc13 [levorphanol]
[4]; [6]
  efficacy in intermediate-term (8-56 day) studies: marginal efficacy
  efficacy in short-term (24 hour) studies: marginal to no efficacy
Postherpetic neuralgia [2]; Rowbotham et al. 2003
  subjects who dropped out of the study due to drug side effects: 31%
Postherpetic neuralgia [2]; high dose, Rowbotham et al. 2003
  average reduction in pain: 33%
Postherpetic neuralgia [2]; low dose, Rowbotham et al. 2003
  average reduction in pain: 14%

## COc1ccc2c3c1O[C@H]1C(=O)CC[C@@]4(O)[C@@H](C2)N(C)CC[C@]314 [oxycodone]
[4]; [6]
  efficacy in intermediate-term (8-56 day) studies: marginal efficacy
  efficacy in short-term (24 hour) studies: marginal to no efficacy
Postherpetic neuralgia [3]
  pain relief from earlier treatments tried by the same patient: None of these treatments produced significant pain relief

## CN(C)CCC=C1c2ccccc2CCc2ccccc21 [amitriptyline]
[5]; Saarto and Wiffen 2005
  NNT (number needed to treat) for moderate pain relief: 2
[5]; explanation of NNT 2
  share of those treated with at least moderate pain relief: 50%
Postherpetic neuralgia [3]
  pain relief from earlier treatments tried by the same patient: None of these treatments produced significant pain relief

## Clc1ccc(COC(Cn2ccnc2)c2ccc(Cl)cc2Cl)c(Cl)c1 (stereo not shown) [miconazole]
Vaginal inflammation; same patient
  local tolerability of earlier topical treatment: irritating
Vaginal inflammation
  effect of earlier topical treatment on vaginal inflammation symptoms: ineffective

## OO [hydrogen peroxide]
Postherpetic neuralgia [3]
  pain relief from earlier treatments tried by the same patient: None of these treatments produced significant pain relief
